{
  "source": "paper doi:10.1101/2023.05.23.541938v1",
  "about": "“Exploring the Chain Release Mechanism from an Atypical Apicomplexan Polyketide Synthase” (biorxiv, 2023)",
  "key": {"[1]": {"molecular_target": "T1, TgTR (TgPKS2 thioester reductase domain) (Toxoplasma gondii, UniProt Z9O203Q0F3)", "T1 construct": "isolated C-terminal thioester reductase (TR) domain of TgPKS2; E. coli codon optimized, expressed in E. coli BL21(DE3) with GroES/EL-TF chaperones", "assay": "thermal shift assay (SYPRO orange)", "assay_type": "binding", "conditions": "1 mM compound, 3 µM TgTR, 10 mM Tris-HCl pH 8.0, 50 mM NaCl, 5% glycerol"}, "[2]": {"molecular_target": "T1, TgTR (TgPKS2 thioester reductase domain)", "assay": "isothermal titration calorimetry", "assay_type": "binding", "conditions": "25 mM Tris-HCl pH 7.6, 25 mM NaCl, N fixed at 1"}, "[3]": {"test_system": "TgTR (TgPKS2 thioester reductase domain)", "conditions": "saturating octanal (2.5 mM) and NADH; N147T in domain numbering"}},
  "data": [
    {"molecule": "NC(=O)C1=CN([C@@H]2O[C@H](COP(=O)(O)OP(=O)(O)OC[C@H]3O[C@@H](n4cnc5c(N)ncnc54)[C@H](O)[C@@H]3O)[C@@H](O)[C@H]2O)C=CC1", "note": "[NADH]", "values": [
      {"measurement": "Tm shift", "setting": "[1]", "result": "NADH, octanoyl-CoA, and octanal increased the TgTR Tm compared to the DMSO control"},
      {"measurement": "Kd", "setting": "[2]; no other ligand", "result": "7.64 ± 0.59", "unit": "µM"}
    ]},
    {"molecule": "CCCCCCCC(=O)SCCNC(=O)CCNC(=O)[C@H](O)C(C)(C)COP(=O)(O)OP(=O)(O)OC[C@H]1O[C@@H](n2cnc3c(N)ncnc32)[C@H](O)[C@@H]1OP(=O)(O)O", "note": "[octanoyl-CoA]", "values": [
      {"measurement": "Tm shift", "setting": "[1]", "result": "NADH, octanoyl-CoA, and octanal increased the TgTR Tm compared to the DMSO control"},
      {"measurement": "Kd", "setting": "[2]; excess NADH (1 mM)", "result": "89.6 ± 3.9", "unit": "µM"}
    ]},
    {"molecule": "CCCCCCCC=O", "note": "[octanal]", "values": [
      {"measurement": "Tm shift", "setting": "[1]", "result": "NADH, octanoyl-CoA, and octanal increased the TgTR Tm compared to the DMSO control"},
      {"measurement": "NADH fluorescence consumption assay, single-point relative rate", "setting": "[3]", "result": "no significant change was observed with octanal"},
      {"measurement": "Kd", "setting": "[2]; excess NADH (1 mM)", "result": "146 ± 31", "unit": "µM"}
    ]}
  ]
}
